Where two headings read alike, the source gives them in different places.
Tests used:
[1] = test system: CpG DNA; assay: Affinity biosensor binding with immobilized CpG DNA; details: for affinity with CpG DNA: 100 μM operating solution; for affinity with CpG DNA / affinity / binding with CpG DNA: 5 μl loaded; for affinity / binding with CpG DNA: 4 μM solution
Description: Immobilization of lipid A and CpG DNA: Using Optically-Based Affinity Biosensors technology, Lipid A, the biologic active centres of LPS, and CpG DNA were respectively, immobilized on the reacting surfaces of cuvettes in an IAsys plus affinity biosensor according to the manufacturer's instructions of IAsys Affinity Sensor. The end of hydrophobic side chain of lipid A was immobilized on cuvette with hydrophobic surface, and the phosphate group (active group of lipid A) at the other end was floating and exposing to the outside, which act as target spot of binding with active constituents for disease treatment in traditional Chinese medicine. The active constituents in solution were binded to lipid A through electrostatic interaction. Biotinylated CpG DNA was immobilized on the surface of a biotin cuvette by linking to avidin, which had been coated on the surface of a biotin cuvette, and then the unlabeled group of CpG DNA was floating and exposing to the outside, which act as target spot of binding with active constituents for disease treatment in traditional Chinese medicine. The active constituents in solution were binded to CpG DNA through the electrostatic interaction and embodiment.
Detection of the aqueous herbal extract: The crude drugs of 114 traditional Chinese herbs were pulverized. 1 g of each powder was added with 10 ml distilled water, boiled at 100° C. for 1.5 h, centrifuged at 4000 rpm for 20 min, filtrated and then collected the supernatant. 5 μl of aqueous herbal extracts of each herb were used to detect their binding with lipid A or CpG DNA. Here are the steps: Binding reaction: 45 μl PBS was added in cuvette; then 5 μl samples was added in cuvette; liquid were draw-out after binding response reach a plateau; Dissociation: Cuvette was washed thrice in 50 μl PBS; liquid were draw-out after dissociation reach a plateau; Regeneration: Cuvette was washed thrice in 50 μl 0.1N HCl; liquid were draw-out after regeneration reach a plateau; Cuvette was washed thrice in 50 μl PBS; next cycle was started to detect new sample after curves back to baseline levels and smoothed. Data analysis was performed using the FASTplot software after detection finished.
2.1.1 Methods: 500 g Lycii cortex was added with 5 L distilled water, soaked for 24 h, boiled at 100 for 1 h, filtered by coarse filter paper, and centrifuged at 8000 rpm/min for 30 min, and the supernatant was collected and concentrated to 1 L under reduced pressure. The supernatant was loaded onto AB-8 Macroporous adsorption resin, and eluted with distilled water and gradient ethanol (10%, 20%, 40% and 100%) successively. The eluted fractions were separately collected, and lyophilized after concentrated under reduced pressure. Five constituents were obtained, and named CL-1 to -5 according to their elution order. CL constituents were separately dissolved in PBS to make 1.0 mg/ml solution, 5 μl of which were loaded. Their binding activity with lipid A and CpG DNA were detected according to methods of embodiment 1.
2.2.1 Methods: CL-4 lyophilization powder was diluted into ultrapure water to make 100 mg/ml solution, filtered by a 0.45 μm filter membrane, loaded onto D001 cationic exchange gel column, and eluted with distilled water, 0.3 M Na2HPO4 and 0.5 M Na2HPO4 successively. The eluted fractions were separately collected, and lyophilized after concentrated under reduced pressure. Three constituents were obtained, and named CL-4a, -4b and -4c according to their elution order. CL-4 constituents were separately dissolved in PBS to make 1.0 mg/ml solution, 5 μl of which were loaded. Their binding activity with lipid A and CpG DNA were detected according to methods of embodiment 1.
3.1 Methods: KA and KB were separately dissolved to make 100 μM operating solution; 5 μl of the solution was loaded; their binding activity with lipid A and CpG DNA were detected according to methods of embodiment 1. […]

[2] = Affinity biosensor binding with immobilized lipid A; details: 100 μM operating solution, 5 μl loaded
Description: Immobilization of lipid A and CpG DNA: Using Optically-Based Affinity Biosensors technology, Lipid A, the biologic active centres of LPS, and CpG DNA were respectively, immobilized on the reacting surfaces of cuvettes in an IAsys plus affinity biosensor according to the manufacturer's instructions of IAsys Affinity Sensor. The end of hydrophobic side chain of lipid A was immobilized on cuvette with hydrophobic surface, and the phosphate group (active group of lipid A) at the other end was floating and exposing to the outside, which act as target spot of binding with active constituents for disease treatment in traditional Chinese medicine. The active constituents in solution were binded to lipid A through electrostatic interaction. […]
2.1.1 Methods: 500 g Lycii cortex was added with 5 L distilled water, soaked for 24 h, boiled at 100 for 1 h, filtered by coarse filter paper, and centrifuged at 8000 rpm/min for 30 min, and the supernatant was collected and concentrated to 1 L under reduced pressure. […] Their binding activity with lipid A and CpG DNA were detected according to methods of embodiment 1. […]
3.1 Methods: KA and KB were separately dissolved to make 100 μM operating solution; 5 μl of the solution was loaded; their binding activity with lipid A and CpG DNA were detected according to methods of embodiment 1.

[3] = test system: RAW264.7 cells; assay: Binding of fluorescently-labeled LPS and CpG DNA with RAW264.7 cells (flow cytometry); assay type: cell-based, murine; details: 30 min; for fluorescence intensity of CpG DNA in RAW264.7 cells / fluorescence intensity of LPS in RAW264.7 cells: 200 μg/ml, p<0.01; for fluorescence intensity of CpG DNA in RAW264.7 cells: 5-FAM CpG DNA 10 μg/ml; for fluorescence intensity of LPS in RAW264.7 cells: FITC-labeled LPS 400 ng/ml
Experimental: 5.1 Methods: RAW264.7 cells were diluted to 1×10^6/ml in DMEM supplemented with 10% (v/v) NCS, added into 24-well cell culture plates, cultured at 37° C. in a 5% CO2 humidified incubator for 4 h, added with KA and KB (0, 200 μg/ml) after cells attachment, and then added with FITC-labeled LPS (final concentration of 400 ng/ml) and 5-FAM CpG DNA (final concentration of 10 μg/ml); at the same time, medium group without any reagent was established; subsequently, RAW264.7 cells were incubated for 30 min, washed thrice in PBS, resuspended with a pipet and transferred into EP tube, and immobilized with 4% paraform for 10 min; then cells were washed thrice in PBS, made into cell suspension, and detected by flow cytometry; the detections of each group were repeated thrice. Mean fluorescence intensity was expressed by means of Mean±standard deviation.
20.1 Methods: RAW264.7 cells was diluted to 1×10^6/ml in DMEM supplemented with 10% (v/v) NCS; 2 ml of the above suspension was added into 24-well cell culture plates and cultured at 37° C. in a 5% CO2 humidified incubator for 4 h; for the purpose of experiment three groups were established: medium group, stimulation group and KB treatment group; no reagent was added into medium group; stimulation group was added with FITC-LPS (200 ng/ml) and 5-FAM-CpG DNA (10 μg/ml); KB treatment group was added with KB (final concentrations of 50, 100 and 200 μM) in the meantime of adding LPS and CpG DNA; cells continued to be cultured for 30 min, washed thrice with PBS, and stored in dark place until the fluorescence intensity of cell membrane surfaces was detected by flow cytometry.

Compound | affinity with CpG DNA [1] | affinity with lipid A [2] | fluorescence intensity of CpG DNA in RAW264.7 cells [3] | fluorescence intensity of LPS in RAW264.7 cells [3] | affinity / binding with CpG DNA [1] | Kd ([1]; KB 0.25-4 μM, IAsys FASTfit, read-out: dissociation equilibrium constant (KD) with CpG DNA) | Kd ([1]; with CpG DNA, read-out: dissociation equilibrium constant (KD = kass/kdiss)) | mean fluorescence intensity (MFI) of cell membrane, 5-FAM-CpG DNA ([3]; KB 50, 100 and 200 μM, 5-FAM-CpG DNA 10 μg/ml) | mean fluorescence intensity (MFI) of cell membrane, FITC-LPS ([3]; KB 50, 100 and 200 μM, FITC-LPS 200 ng/ml)
O=C(CCc1ccc(O)c(O)c1)NCCCNCCCCNCCCNC(=O)CCc1ccc(O)c(O)c1 [KA, Kukoamine A] | high affinity | high affinity | significantly decrease the fluorescence intensity | significantly decrease the fluorescence intensity |  |  |  |  | 
NCCCN(CCCCNCCCNC(=O)CCc1ccc(O)c(O)c1)C(=O)CCc1ccc(O)c(O)c1 [KB, Kukoamine B] | high affinity | high affinity | significantly decrease the fluorescence intensity | significantly decrease the fluorescence intensity | high affinity | 660 nM | 664 nM | decrease the MFI of cell membrane in a dose-dependent manner | decrease the MFI of cell membrane in a dose-dependent manner
polymyxin B [PMB, reference compound] |  |  |  |  | almost has no binding effects |  |  |  | 
